Data from patent US8546440B2, “Substituted bicyclic imidazole derivatives as gamma secretase modulators” (Janssen Pharmaceuticals, Inc., priority 2008, dated 2013).
pIC50: −log10 of the molar value.

What was measured:
Aβ42 [1] = experiment: Screening for γ-secretase-modulating activity, Method 1: Aβ42 sandwich ELISA in supernatant of SKNBE2 cells carrying APP 695 wild type (Tables 12a, 12b); assay type: cell-based; details: Homo sapiens; Table 12b; Method 1, SKNBE2 cells carrying APP 695 wild type, cell supernatant ELISA; averaged IC50 values, percentage of control vs log concentration
Method in brief: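 Aβ42 levels in the supernatant were measured by ELISA with 450 nm colorimetric read-out after 18 h compound exposure of wild-type APP695 SKNBE2 cells plated one day earlier. IC50 was fitted with a 4-parameter model, either with fixed top/bottom and a Hill slope of 1, or as averaged values from % of vehicle control; WST-1 was used to flag cytotoxicity.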

Aβtotal [2] = experiment: Screening for γ-secretase-modulating activity, Method 1: Aβtotal sandwich ELISA in supernatant of SKNBE2 cells carrying APP 695 wild type (Tables 12a, 12b); assay type: cell-based; details: Homo sapiens; Table 12b; Method 1, SKNBE2 cells carrying APP 695 wild type, cell supernatant ELISA; averaged IC50 values
Method in brief: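 Aβtotal in conditioned medium was measured by 6E10/biotin-4G8 sandwich ELISA with fluorogenic peroxidase read-out. Cells were wild-type APP 695 SKNBE2, treated 18 hours in glutamine-supplemented Ultraculture. IC50 came from 4-parameter fits of inhibition, or percent of control, against concentration; toxicity was checked by WST-1.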

Aβ42 [3] = experiment: Screening for γ-secretase-modulating activity, Method 2: Aβ42 Alphalisa in supernatant of SKNBE2 cells carrying APP 695 wild type (Table 12c); assay type: cell-based; details: Homo sapiens, Method 2, Table 12c, incubated overnight
Method in brief: (§1)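 SKNBE2 cells expressing wild-type APP695, 10^4 cells/well, exposed to compound overnight at 37 °C; secreted Aβ42 and Aβtotal in supernatant measured by AlphaLISA sandwich immunoassays (Aβ42: C-terminal/N-terminal antibodies; Aβtotal: N-terminal/4G8). IC50 from 4-parameter fit of % untreated control.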

Aβtotal [4] = experiment: Screening for γ-secretase-modulating activity, Method 2: Aβtotal Alphalisa in supernatant of SKNBE2 cells carrying APP 695 wild type (Table 12c); assay type: cell-based; details: Homo sapiens, Method 2, Table 12c, incubated overnight
Method in brief: as §1

SMILES	pIC50 (Aβ42 [1])	pIC50 (Aβtotal [2])	pIC50 (Aβ42 [3])	pIC50 (Aβtotal [4])	melting point [°C]
COc1cc(Nc2cccn3cc(-c4cc(C#N)ccc4C)nc23)ccc1-n1cnc(C)c1 [Compound 105]	7.05	< 5.52	7.49	5.18	127.5
COc1nc(Nc2cccn3c(C)c(-c4ccccc4Cl)nc23)ccc1-n1cnc(C)n1 [Compound 145]			8.15	< 5.00	250.3
COc1nc(Nc2cc(C(C)C)nn3cc(-c4ccccc4Cl)nc23)ccc1-n1cnc(C)c1 [Compound 163]			6.78	5.08	179.3

Results, then the compound that gave them:

pIC50 (Aβ42 [1])	pIC50 (Aβtotal [2])	pIC50 (Aβ42 [3])	pIC50 (Aβtotal [4])	melting point [°C]	SMILES
7.05	< 5.00	7.25	< 5.00	149.5	COCCc1c(-c2ccc(F)cc2)nc2c(Nc3ccc(-n4cnc(C)n4)c(OC)c3)cccn12 [Compound 127]
		6.60	5.16	165.1	COc1cc(Nc2cccn3c(OC)c(-c4ccc(F)cc4)nc23)ccc1-n1cnc(C)n1 [Compound 132]
